Assay results from US12065445B2, “CDK2 inhibitors and methods of using the same” (Cedilla Therapeutics, Inc., priority 2021, dated 2024).

Assays:
[1] = tested on: Kuramochi cells; assay: BrdU Cell Proliferation Assay; assay type: cell-based; conditions: read-out: BrdU - KURAMOCHI.1: IC50
Procedure, shortened: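 Signal is 450 nm absorbance from a peroxidase anti-BrdU ELISA after a 1-hour BrdU label, background-subtracted and normalized to DMSO-treated wells. Kuramochi cells (2,000 per well) had been exposed to compound for 4 days. Dosing used a 10-point dose response in 3-fold steps.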

[2] = tested on: Kuramochi cells labeled with mApple-H2B; assay: IncuCyte Cell Proliferation Assay; assay type: cell-based; conditions: 72 h
Procedure, shortened: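 GI50 came from dose-response fits of cell-count fold change between 0 and 72 h, normalized to DMSO controls. Counts were fluorescent nuclei from live-cell images over a 10-point, ½ log series starting at 20 μM.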

## COC1CCN(C(=O)[C@@H](NC(=O)[C@@H]2CN(C(=O)c3cncs3)CC23CN(C(=O)[C@H]2CC2(C)C)C3)[C@@H](C)OCC2CCC(F)(F)CC2)CC1 [I-385]
[1]
  IC50: ≤ 0.5 µM
[2]
  IC50: ≤ 0.5 µM

## CNC(=O)[C@@H](NC(=O)[C@@H]1CN(C(=O)c2cncs2)CC12CN(C(=O)[C@H]1CC1(C)C)C2)[C@H](O)CC1CCCCC1 [I-379]
[1]
  IC50: > 10 µM
[2]
  IC50: > 20 µM

## COC[C@H]1CCCN(C(=O)[C@@H](NC(=O)[C@@H]2CN(C(=O)c3cncs3)CC23CN(C(=O)[C@H]2CC2(C)C)C3)[C@@H](C)OCC2CCCCC2)C1 [I-196A, (S)—N-((2S,3R)-3-(cyclohexylmethoxy)-1-((S)-3-(methoxymethyl)piperidin-1-yl)-1-oxobutan-2-yl)-2-((S)-2,2-dimethylcyclopropanecarbonyl)-6-(thiazole-5-carbonyl)-2,6-diazaspiro[3.4]octane-8-carboxamide]
[1]
  IC50: ≤ 0.5 µM
[2]
  IC50: ≤ 0.5 µM

## CNC(=O)[C@@H](NC(=O)[C@@H]1CN(C(=O)c2cncs2)CC12CN(C(=O)[C@H]1CC1(C)C)C2)[C@@H](C)OCC1CCCC2(CC2)C1 (some centres unmarked) [I-370]
[1]
  IC50: ≤ 0.5 µM
[2]
  IC50: ≤ 0.5 µM

## Cc1ccc(C(C)NC(=O)[C@@H]2CN(C(=O)c3cnn(Cc4ccccc4)c3)CC23CN(C(=O)[C@H]2CC2(C)C)C3)nn1 (some centres unmarked) [I-366]
[1]
  IC50: 0.5 to 5 µM
[2]
  IC50: 0.5 to 5 µM

## CC1(C)C[C@@H]1C(=O)N1CC2(CN(C(=O)c3cnn(Cc4ccccc4)c3)C[C@H]2C(=O)NC[C@H]2CC[C@H](C)CC2)C1 [I-382]
[1]
  IC50: > 10 µM
[2]
  IC50: > 20 µM

## Cc1ccc(CNC(=O)[C@@H]2CN(C(=O)c3cnn(Cc4ccccc4)c3)CC23CN(C(=O)[C@H]2CC2(C)C)C3)nc1 [I-365]
[1]
  IC50: > 10 µM
[2]
  IC50: > 20 µM

## CNC(=O)[C@@H](NC(=O)[C@@H]1CN(C(=O)c2cnn(Cc3ccccc3)c2)CC12CN(C(=O)[C@H]1CC1(C)C)C2)[C@@H](C)OCC1CCCCC1 [I-123A, (S)-6-(1-benzyl-1H-pyrazole-4-carbonyl)-N-((2S,3R)-3-(cyclohexylmethoxy)-1-(methylamino)-1-oxobutan-2-yl)-2-((S)-2,2-dimethylcyclopropane-1-carbonyl)-2,6-diazaspiro[3.4]octane-8-carboxamide]
[1]
  IC50: ≤ 0.5 µM
[2]
  IC50: 0.5 to 5 µM

## CNC(=O)C(NC(=O)[C@@H]1CN(C(=O)c2cncs2)CC12CN(C(=O)[C@H]1CC1(C)C)C2)c1cccc(C2CCCCC2)n1 (some centres unmarked) [I-362]
[1]
  IC50: 0.5 to 5 µM
[2]
  IC50: 5 to 20 µM

## COC[C@H]1CCCN(C(=O)[C@@H](NC(=O)[C@@H]2CN(C(=O)c3cnn(Cc4ccccc4)c3)CC23CN(C(=O)[C@H]2CC2(C)C)C3)[C@@H](C)OC)C1 [I-283]
[1]
  IC50: > 10 µM
[2]
  IC50: > 20 µM

## C[C@@H](OCC1CCC(F)(F)CC1)[C@H](NC(=O)[C@@H]1CN(C(=O)c2cncs2)CC12CN(C(=O)[C@H]1CC1(C)C)C2)C(=O)N1CCC(O)CC1 [I-383]
[1]
  IC50: 5 to 10 µM
[2]
  IC50: 0.5 to 5 µM

## CNC(=O)C(NC(=O)[C@@H]1CN(C(=O)c2cn[nH]c2)CC12CN(C(=O)[C@H]1CC1(C)C)C2)C(O)Cc1ccccc1 (some centres unmarked) [I-298]
[1]
  IC50: > 10 µM
[2]
  IC50: > 20 µM

## CNC(=O)C(NC(=O)[C@@H]1CN(C(=O)c2cncs2)CC12CN(C(=O)[C@H]1CC1(C)C)C2)c1ncc(C2CCCCC2)o1 (some centres unmarked) [I-426]
[1]
  IC50: > 10 µM
[2]
  IC50: > 20 µM

## CNC(=O)C(NC(=O)[C@@H]1CN(C(=O)c2cncs2)CC12CN(C(=O)[C@H]1CC1(C)C)C2)c1cccc(N2CCOCC2)n1 (some centres unmarked) [I-422]
[1]
  IC50: > 10 µM
[2]
  IC50: > 20 µM

## COC[C@H]1CCCN(C(=O)[C@@H](NC(=O)[C@@H]2CN(C(=O)c3cncs3)CC23CN(C(=O)[C@H]2CC2(C)C)C3)[C@@H](C)OC[C@H]2CC[C@H](OC)CC2)C1 [I-402]
[1]
  IC50: 0.5 to 5 µM
[2]
  IC50: 0.5 to 5 µM

## CNC(=O)C(NC(=O)[C@@H]1CN(C(=O)c2cncs2)CC12CN(C(=O)[C@H]1CC1(C)C)C2)c1cccc(N2CCCCC2)n1 (some centres unmarked) [I-432]
[1]
  IC50: > 10 µM
[2]
  IC50: > 20 µM

## COc1ccc(CNC(=O)[C@@H]2CN(C(=O)c3cnn(Cc4ccccc4)c3)CC23CN(C(=O)[C@H]2CC2(C)C)C3)nn1 [I-371]
[1]
  IC50: > 10 µM
[2]
  IC50: > 20 µM

## COC[C@H]1CCCN(C(=O)[C@@H](NC(=O)[C@H]2CN(C(=O)c3cncs3)CC23CN(C(=O)[C@H]2CC2(C)C)C3)[C@@H](C)OCC2CCCCC2)C1 [I-196B]
[1]
  IC50: ≤ 0.5 µM
[2]
  IC50: 0.5 to 5 µM

## CNC(=O)[C@@H](NC(=O)[C@@H]1CN(C(=O)Cc2cn[nH]c2)CC12CN(C(=O)[C@H]1CC1(C)C)C2)[C@@H](C)OCc1ccccc1 [I-358]
[1]
  IC50: > 10 µM
[2]
  IC50: > 20 µM

## CC1(C)C[C@@H]1C(=O)N1CC2(CN(C(=O)c3cnn(Cc4ccccc4)c3)C[C@H]2C(=O)N2CCN(CC3CCCCC3)C(=O)C2)C1 [I-253]
[1]
  IC50: 5 to 10 µM
[2]
  IC50: 5 to 20 µM

## CC1(C)C[C@@H]1C(=O)N1CC2(CN(C(=O)c3cnn(Cc4ccccc4)c3)C[C@H]2C(=O)NCc2nnc[nH]2)C1 [I-191A]
[1]
  IC50: > 10 µM
[2]
  IC50: > 20 µM

## C[C@@H](OCC12CCC(CC1)OC2)[C@H](NC(=O)[C@@H]1CN(C(=O)c2cncs2)CC12CN(C(=O)[C@H]1CC1(C)C)C2)C(=O)N1CCC2(CC1)COC2 [I-336]
[1]
  IC50: > 10 µM
[2]
  IC50: 5 to 20 µM

## CNC(=O)[C@@H](NC(=O)[C@@H]1CN(C(=O)c2cnn(Cc3ccc(F)cc3)c2)CC12CN(C(=O)[C@H]1CC1(C)C)C2)[C@@H](C)OCc1ccc(F)cc1 [I-136A]
[1]
  IC50: 0.5 to 5 µM
[2]
  IC50: 5 to 20 µM

## C[C@@H](OCC1CCCCC1)[C@H](NC(=O)C1CN(C(=O)c2cnn(Cc3ccccc3)c2)CC12CN(C(=O)[C@H]1CC1(C)C)C2)C(=O)N1CCC(F)(F)CC1 (some centres unmarked) [I-149 mixture]
[1]
  IC50: ≤ 0.5 µM
[2]
  IC50: ≤ 0.5 µM

## CNC(=O)[C@@H](NC(=O)[C@H]1CN(C(=O)c2cnn(Cc3ccccc3)c2)CC12CN(C(=O)[C@H]1CC1(C)C)C2)[C@@H](C)OCCC1CCCCC1 [I-125B]
[1]
  IC50: 0.5 to 5 µM
[2]
  IC50: 0.5 to 5 µM

## C[C@@H](OCC1CCCCC1)[C@H](NC(=O)C1CN(C(=O)c2cnn(Cc3ccccc3)c2)CC12CN(C(=O)[C@H]1CC1(C)C)C2)C(=O)N1CCCC(CO)C1 (some centres unmarked) [I-105]
[1]
  IC50: ≤ 0.5 µM
[2]
  IC50: ≤ 0.5 µM

## CNC(=O)[C@@H](NC(=O)[C@@H]1CN(C(=O)c2cncs2)CC12CN(C(=O)[C@H]1CC1(C)C)C2)C1(OCc2ccccc2)CC1 [I-375]
[1]
  IC50: > 10 µM
[2]
  IC50: > 20 µM

## COC[C@H]1CCCN(C(=O)[C@@H](C)NC(=O)[C@@H]2CN(C(=O)c3cncs3)CC23CN(C(=O)[C@H]2CC2(C)C)C3)C1 [I-324]
[1]
  IC50: > 10 µM
[2]
  IC50: > 20 µM

## CNC(=O)[C@@H](NC(=O)[C@@H]1CN(C(=O)c2cnc(C3CC3)s2)CC12CN(C(=O)[C@H]1CC1(C)C)C2)[C@@H](C)OCC1CCCCC1 [I-178A]
[1]
  IC50: > 10 µM
[2]
  IC50: 5 to 20 µM

## CNC(=O)C(NC(=O)[C@@H]1CN(C(=O)c2cncs2)CC12CN(C(=O)[C@H]1CC1(C)C)C2)c1nc(C2CCCCC2)co1 (some centres unmarked) [I-425]
[1]
  IC50: > 10 µM
[2]
  IC50: > 20 µM

## CC1(C)C[C@@H]1C(=O)N1CC2(CN(C(=O)c3cncs3)C[C@H]2C(=O)NC(c2cccc(C3CCCCC3)n2)C2COCCO2)C1 (some centres unmarked) [I-496]
[1]
  IC50: > 10 µM
[2]
  IC50: 5 to 20 µM

## CNC(=O)[C@@H](NC(=O)[C@@H]1CN(C(=O)c2cnn(Cc3ccccc3)c2)CC12CN(C(=O)NC(C)C)C2)[C@@H](C)OCC1CCCCC1 [I-267]
[1]
  IC50: > 10 µM
[2]
  IC50: > 20 µM

## C[C@@H](OCC1CCCCC1)[C@H](NC(=O)C1CN(C(=O)c2cnn(Cc3ccccc3)c2)CC12CN(C(=O)[C@H]1CC1(C)C)C2)C(=O)N1CCOCC1 (some centres unmarked) [I-152 mixture]
[1]
  IC50: ≤ 0.5 µM
[2]
  IC50: ≤ 0.5 µM

## C[C@@H](OCC1CCC(F)(F)CC1)[C@H](NC(=O)[C@H]1CN(C(=O)c2cnn(Cc3ccc(F)cc3)c2)CC12CN(C(=O)[C@H]1CC1(C)C)C2)C(=O)N1CCC(F)(F)CC1 [I-164B]
[1]
  IC50: 0.5 to 5 µM
[2]
  IC50: 0.5 to 5 µM

## CNC(=O)[C@@H](NC(=O)[C@@H]1CN(C(=O)c2cnc(C(C)(C)C)s2)CC12CN(C(=O)[C@H]1CC1(C)C)C2)[C@@H](C)OCC1CCCCC1 [I-229A]
[1]
  IC50: 0.5 to 5 µM
[2]
  IC50: 0.5 to 5 µM

## C[C@@H](OCc1ccccc1)[C@H](NC(=O)C1CN(C(=O)c2cnn(Cc3ccccc3)c2)CC12CN(C(=O)[C@H]1CC1(C)C)C2)C(=O)N1CCCCC1 (stereo partly drawn) [I-97, 6-(1-benzyl-1H-pyrazole-4-carbonyl)-N-((2S,3R)-3-(benzyloxy)-1-oxo-1-(piperidin-1-yl)butan-2-yl)-2-((S)-2,2-dimethylcyclopropanecarbonyl)-2,6-diazaspiro[3.4]octane-8-carboxamide]
[1]
  IC50: 0.5 to 5 µM
[2]
  IC50: 0.5 to 5 µM

## CNC(=O)[C@@H](NC(=O)[C@@H]1CN(C(=O)c2cnn(Cc3ccccc3)c2)CC12CN(C(=O)[C@H]1CC1(C)C)C2)[C@@H](C)OCC(C)C [I-137A]
[1]
  IC50: > 10 µM
[2]
  IC50: > 20 µM

## C[C@@H](OCC1CCCCC1)[C@H](NC(=O)[C@@H]1CN(C(=O)c2cncs2)CC12CN(C(=O)[C@H]1CC1(C)C)C2)C(=O)N1CCOCC1 [I-198]
[1]
  IC50: ≤ 0.5 µM
[2]
  IC50: ≤ 0.5 µM

## C[C@@H](OCC12CCC(CC1)CC2)[C@H](NC(=O)[C@@H]1CN(C(=O)c2cncs2)CC12CN(C(=O)[C@H]1CC1(C)C)C2)C(C)(C)O [I-304]
[1]
  IC50: 0.5 to 5 µM
[2]
  IC50: 0.5 to 5 µM

## C[C@@H](OCC1CCC(F)(F)CC1)[C@H](NC(=O)[C@@H]1CN(C(=O)c2cncs2)CC12CN(C(=O)[C@H]1CC1(C)C)C2)C(=O)N1CCC(C(F)(F)F)CC1 [I-398]
[1]
  IC50: ≤ 0.5 µM
[2]
  IC50: ≤ 0.5 µM

## CNC(=O)[C@@H](NC(=O)[C@@H]1CN(C(=O)c2cnn(Cc3ccccc3)c2)CC12CN(C(=O)[C@H]1CC1(C)C)C2)[C@@H](C)N(C)CC1CCCCC1 [I-266]
[1]
  IC50: > 10 µM
[2]
  IC50: > 20 µM

## CNC(=O)[C@@H](NC(=O)[C@@H]1CN(C(=O)c2cncs2)CC12CN(C(=O)[C@H]1CC1(C)C)C2)[C@@H](C)OC[C@H]1CC[C@@H](C)CC1 [I-354]
[1]
  IC50: 0.5 to 5 µM
[2]
  IC50: ≤ 0.5 µM

## CO[C@H]1COCC[C@@H]1NC(=O)[C@@H]1CN(C(=O)c2cnn(Cc3ccccc3)c2)CC12CN(C(=O)[C@H]1CC1(C)C)C2 [I-131A]
[1]
  IC50: > 10 µM
[2]
  IC50: > 20 µM
